Experimental data: patent US20200017496A1 (priority 2017, published 2020)
Where two headings read alike, the source gives them in different places.

What was measured:
[1] = tested on: Enterobacter cloacae (ECL) isolates; assay: MIC of compounds alone and combined with antibacterials, broth microdilution (CLSI); format: cell-based; details: for MIC: Enterobacter cloacae
Outline: (§1)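 Log-phase isolates at final 5·10^5 CFU/mL in cation-adjusted Mueller-Hinton broth, incubated 16-20 h at 35° C in ambient air. MIC read visually as lowest concentration preventing growth, for compound alone and for antibacterial at each compound concentration.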

[2] = tested on: Enterobacter aerogenes (EAE) isolates; assay: as above; format: cell-based; details: for MIC: Klebsiella aerogenes, read-out: MIC
Outline: as §1

C=CC1=C(C(=O)O)N2C(=O)[C@@H](NC(=O)/C(=N\OCC(=O)O)c3csc(N)n3)[C@H]2SC1 [FIX, Cefixime] gave an MIC ([1]; strain ECL 200138 (AmpC), ATB alone) of over 128 µg/mL, an MIC ([1]; strain ECL 200138 (AmpC), CLA @ 4 μg/ml+ ATB) of over 128 µg/mL and an MIC ([1]; strain ECL 200322 (TEM-1, CTX-M-15, OXA-1), ATB alone) of over 128 µg/mL. The MIC ([1]; strain ECL 260033 (AmpC), ATB alone) was over 128 µg/mL, the MIC ([1]; strain ECL 260033 (AmpC), CLA @ 4 μg/ml+ ATB) was over 128 µg/mL and the MIC ([1]; strain ECL 260253 (TEM-1, KPC-3), ATB alone) was over 128 µg/mL. The MIC ([1]; strain ECL 260253 (TEM-1, KPC-3), CLA @ 4 μg/ml+ ATB, read-out: MIC) was 64 µg/mL, the MIC ([1]; strain ECL 260323 (AmpC), ATB alone) was over 128 µg/mL and the MIC ([1]; strain ECL 260323 (AmpC), CLA @ 4 μg/ml+ ATB) was over 128 µg/mL. It also gave an MIC ([1]; strain ECL 260508 (TEM-1, CTX-M-15), ATB alone) of over 128 µg/mL, an MIC ([1]; strain ECL 260508 (TEM-1, CTX-M-15), CLA @ 4 μg/ml+ ATB) of 32 µg/mL and an MIC ([1]; strain ECL NEM146383 (AmpC), ATB alone) of over 128 µg/mL. It also gave an MIC ([1]; strain ECL NEM146383 (AmpC), CLA @ 4 μg/ml+ ATB) of over 128 µg/mL, an MIC ([1]; strain ECL P99 (AmpC), ATB alone) of over 128 µg/mL and an MIC ([1]; strain ECL P99 (AmpC), CLA @ 4 μg/ml+ ATB) of over 128 µg/mL. For the same compound, the MIC ([1]; strain ECL UFR12 (CTX-M-9, OXA-48), ATB alone) was 16 µg/mL, the MIC ([1]; strain ECL UFR12 (CTX-M-9, OXA-48), CLA @ 4 μg/ml+ ATB) was 8 µg/mL and the MIC ([1]; strain ECL UFR13 (TEM-1, SHV-12, CTX-M-9, OXA-48), ATB alone) was over 128 µg/mL. The MIC ([1]; strain ECL UFR13 (TEM-1, SHV-12, CTX-M-9, OXA-48), CLA @ 4 μg/ml+ ATB, read-out: MIC) was 128 µg/mL, the MIC ([1]; strain ECL UFR14 (TEM-1, SHV-12, CTX-M-15, DHA-1, OXA-1, OXA-48), ATB alone) was over 128 µg/mL and the MIC ([1]; strain ECL UFR14 (TEM-1, SHV-12, CTX-M-15, DHA-1, OXA-1, OXA-48), CLA @ 4 μg/ml+ ATB) was over 128 µg/mL. For the same compound, the MIC ([1]; strain ECL UFR60 (TEM-1, CTX-M-15, KPC-2), ATB alone) was over 128 µg/mL, the MIC ([1]; strain ECL UFR60 (TEM-1, CTX-M-15, KPC-2), CLA @ 4 μg/ml+ ATB, read-out: MIC) was 128 µg/mL and the MIC ([1]; strain ECL UFR70 (TEM-1, CTX-M-15, CMY-2, OXA-1, Porin loss), ATB alone) was over 128 µg/mL. It also gave an MIC ([1]; strain ECL UFR70 (TEM-1, CTX-M-15, CMY-2, OXA-1, Porin loss), CLA @ 4 μg/ml+ ATB) of over 128 µg/mL, an MIC ([1]; strain ECL UFR84 (TEM-1, AmpC, OXA-1), ATB alone) of over 128 µg/mL and an MIC ([1]; strain ECL UFR84 (TEM-1, AmpC, OXA-1), CLA @ 4 μg/ml+ ATB) of over 128 µg/mL. It also gave an MIC ([1]; strain ECL UFR85 (TEM-1, CTX-M-15, AmpC), ATB alone) of over 128 µg/mL, an MIC ([1]; strain ECL UFR85 (TEM-1, CTX-M-15, AmpC), CLA @ 4 μg/ml+ ATB) of over 128 µg/mL and an MIC ([1]; strain ECL UFR194 (OXA-48), ATB alone) of 4 µg/mL. It also gave an MIC ([1]; strain ECL UFR194 (OXA-48), CLA @ 4 μg/ml+ ATB) of 8 µg/mL, an MIC ([1]; strain ECL UFR195 (TEM-1, CTX-M-15, OXA-1, OXA-48), ATB alone) of over 128 µg/mL and an MIC ([1]; strain ECL UFR195 (TEM-1, CTX-M-15, OXA-1, OXA-48), CLA @ 4 μg/ml+ ATB) of over 128 µg/mL. For the same compound, the MIC ([1]; strain ECL UFR196 (TEM-1, CTX-M-15, OXA-1, OXA-48), ATB alone) was over 128 µg/mL, the MIC ([1]; strain ECL UFR196 (TEM-1, CTX-M-15, OXA-1, OXA-48), CLA @ 4 μg/ml+ ATB) was over 128 µg/mL and the MIC ([1]; strain ECL UFR200 (TEM-1, SHV-12, KPC-2), ATB alone) was over 128 µg/mL. The MIC ([1]; strain ECL UFR200 (TEM-1, SHV-12, KPC-2), CLA @ 4 μg/ml+ ATB) was 16 µg/mL, the “MIC ATB in combination” value ([1]; strain ECL UFR195, antibacterial combined with AF1 @ 4 μg/mL) was 4 µg/mL and the “MIC ATB in combination” value ([1]; strain ECL UFR195, antibacterial combined with AF1 @ 8 μg/mL) was “<=0.25 μg/mL”. For the same compound, the “MIC ATB in combination” value ([1]; strain ECL UFR196, antibacterial combined with AF1 @ 4 μg/mL) was 16 µg/mL, the “MIC ATB in combination” value ([1]; strain ECL UFR196, antibacterial combined with AF1 @ 8 μg/mL) was 4 µg/mL and the “MIC ATB in combination” value ([1]; strain ECL UFR197, antibacterial combined with AF1 @ 4 μg/mL) was 16 µg/mL. The “MIC ATB in combination” value ([1]; strain ECL UFR197, antibacterial combined with AF1 @ 8 μg/mL) was 1 µg/mL, the “MIC ATB in combination” value ([1]; strain ECL UFR198, antibacterial combined with AF1 @ 4 μg/mL) was 64 µg/mL and the “MIC ATB in combination” value ([1]; strain ECL UFR198, antibacterial combined with AF1 @ 8 μg/mL) was 64 µg/mL. For the same compound, the “MIC ATB in combination” value ([2]; EAE 49469, AF1 @ 4 μg/mL) was 32 µg/mL, the “MIC ATB in combination” value ([2]; EAE 49469, AF1 @ 8 μg/mL) was 16 µg/mL and the “MIC ATB in combination” value ([2]; EAE 200261, AF1 @ 4 μg/mL) was 32 µg/mL. For the same compound, the “MIC ATB in combination” value ([2]; EAE 200261, AF1 @ 8 μg/mL) was 4 µg/mL, the “MIC ATB in combination” value ([2]; EAE UFR199, AF1 @ 4 μg/mL) was 1 µg/mL and the “MIC ATB in combination” value ([2]; EAE UFR199, AF1 @ 8 μg/mL) was 0.25 µg/mL. For the same compound, the “MIC ATB in combination” value ([2]; EAE UFR201, AF1 @ 4 μg/mL) was “<=0.25 μg/mL”, the “MIC ATB in combination” value ([2]; EAE UFR201, AF1 @ 8 μg/mL) was “<=0.25 μg/mL” and the “MIC ATB in combination” value ([2]; EAE UFR202, AF1 @ 4 μg/mL) was 16 µg/mL. The “MIC ATB in combination” value ([2]; EAE UFR202, AF1 @ 8 μg/mL) was 4 µg/mL, the “MIC ATB in combination” value ([2]; EAE UFR213, AF1 @ 4 μg/mL) was 1 µg/mL and the “MIC ATB in combination” value ([2]; EAE UFR213, AF1 @ 8 μg/mL) was 0.5 µg/mL. The MIC ([2]; EAE UFR199, alone) was over 1020 µg/mL, the MIC ([2]; strain EAE 49469 (AmpC), ATB alone) was over 128 µg/mL and the MIC ([2]; strain EAE 49469 (AmpC), CLA @ 4 μg/ml+ ATB) was over 128 µg/mL. It also gave an MIC ([2]; strain EAE 200261 (TEM-x, AmpC), ATB alone) of over 128 µg/mL, an MIC ([2]; strain EAE 200261 (TEM-x, AmpC), CLA @ 4 μg/ml+ ATB) of over 128 µg/mL and an MIC ([2]; strain EAE UFR199 (TEM-1b, SHV-12, KPC-2, OXA-9), ATB alone) of over 1020 µg/mL. For the same compound, the MIC ([2]; strain EAE UFR199 (TEM-1b, SHV-12, KPC-2, OXA-9), CLA @ 4 μg/ml+ ATB) was 16 µg/mL, the MIC ([2]; strain EAE UFR201 (TEM-1, SHV-12, CTX-M-15), ATB alone) was over 128 µg/mL and the MIC ([2]; strain EAE UFR201 (TEM-1, SHV-12, CTX-M-15), CLA @ 4 μg/ml+ ATB) was at most 0.25 µg/mL. The MIC ([2]; strain EAE UFR202 (TEM-24), ATB alone) was over 128 µg/mL, the MIC ([2]; strain EAE UFR202 (TEM-24), CLA @ 4 μg/ml+ ATB) was over 128 µg/mL and the MIC ([2]; strain EAE UFR213 (TEM-24), ATB alone) was over 128 µg/mL. It also gave an MIC ([2]; strain EAE UFR213 (TEM-24), CLA @ 4 μg/ml+ ATB) of over 128 µg/mL.
